Experimental data taken from patent EP0981362B1, “USE OF GLP-2 AGONISTS ENHANCING F[…] THE UPPER GASTROINTESTINAL TRACT” (1149336 ONTARIO INC., priority 1997, dated 1998).

Tested on: female CD1 mice
Test: Indomethacin-induced mortality in mice (model dose)
Assay type: in vivo
Conditions: indomethacin 7 mg/kg s.c. bid for two days following overnight fasting; 7-8 week old female CD1 mice; saline-treated control animals
Experimental: Indomethacin(1-[p-chlorobenzoyl]-5-methoxy-2-methylindole-3-acetic acic) (Sigma Chemical Co., St Louis MO, lot 74H1212), stock solution was prepared and aliquoted 1 hr before the first injection. The mice were weighed, and then fasted overnight, and given food one hour prior to the first indomethacin injection. Mice were not fasted for the second indomethacin injection. Indomethacin (14.5 mg) was weighed out using a Mettler AE166 scale and dissolved in 1 mL anhydrous ethyl alcohol. The solution was warmed at 37° C for 5 minutes and thoroughly vortexed every minute until fully dissolved. 998.1 uL of stock indomethacin solution was diluted in 41 ml 5% NaHCO3 pH 7.3. […] Indomethacin used in the second injection was stored at -20° C overnight and allowed to thaw at room temperature prior to injection. Mice were injected at the same time (10:00 AM) on both days approximately 1 hr after receiving h[Gly^2]-GLP-2. Animals not receiving indomethacin were administered vehicle alone (250 µl anhydrous ethyl alcohol in 10.5 mL NaHCO3 pH 7.3 - a final injection volume of 0.5 ml was given daily over 2 days). Animals were sacrificed in a CO2 chamber 14 days following the administration of either PBS or h[Gly^2]-GLP-2.
Pilot experiments were performed to determine an indomethacin dose that reproducibly produced ∼ 50% mortality in mice. […]

`COc1ccc2c(c1)c(CC(=O)O)c(C)n2C(=O)c1ccc(Cl)cc1` [indomethacin, 1-[p-chlorobenzoyl]-5-methoxy-2-methylindole-3-acetic acic] was tested, and the mortality was 50%.
